Tests used:
adjuvant arthritis = settings: known to be active or inactive; cited from earlier work
RZR/RORα = target: T1, RZR/RORα (Homo sapiens, UniProt P35398); assay: CAT reporter assay for ligand induced activation, Drosophila SL-3 cells transfected with RZR/RORα; assay type: cell-based; settings: when applied in the nanomolar range
T1 construct: RZRα is likely the RORalpha4 splice form
T1 sequence (P35398 1-523): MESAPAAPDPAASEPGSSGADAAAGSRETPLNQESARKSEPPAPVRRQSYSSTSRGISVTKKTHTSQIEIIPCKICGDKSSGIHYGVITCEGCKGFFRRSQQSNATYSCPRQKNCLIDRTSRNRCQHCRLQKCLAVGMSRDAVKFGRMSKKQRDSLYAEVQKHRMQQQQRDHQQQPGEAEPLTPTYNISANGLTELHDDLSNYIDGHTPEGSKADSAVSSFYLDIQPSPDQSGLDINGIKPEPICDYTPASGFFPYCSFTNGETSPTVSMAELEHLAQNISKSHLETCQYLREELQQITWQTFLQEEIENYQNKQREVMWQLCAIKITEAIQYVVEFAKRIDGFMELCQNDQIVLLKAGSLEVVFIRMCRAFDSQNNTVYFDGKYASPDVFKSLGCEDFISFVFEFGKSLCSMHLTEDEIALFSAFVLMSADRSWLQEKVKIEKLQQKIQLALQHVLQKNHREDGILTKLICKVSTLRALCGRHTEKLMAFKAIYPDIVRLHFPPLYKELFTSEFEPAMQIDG
Description: After dilution with 0.9 ml Schneider's medium, the liposomes are added to the cells.
The values given in table 1 represent the mean activation of CAT activities measured in three independent experiments, compared to the addition of pure solvent (ethanol).

Row | SMILES | activity in adjuvant arthritis (adjuvant arthritis) | affinity to the RZR/RORα receptor (RZR/RORα)
1 | CC1=C(/C=C/C(C)=C/C=C/C(C)=C/C(=O)O)C(C)(C)CCC1 [all trans RA, retinoic acid] | - | 
2 | CC1=C(/C=C/C(C)=C/C=C/C(C)=C/C(=O)O)C(C)(C)CCC1 [9-cis RA, retinoic acid] | - | 
3 | COc1ccc2[nH]cc(CCNC(C)=O)c2c1 [melatonin] |  | high affinity
4 | C=C1/C(=C\C=C2/CCC[C@]3(C)[C@@H]([C@H](C)CCCC(C)(C)O)CC[C@@H]23)C[C@@H](O)C[C@@H]1O [vitamin D, 1,25-dihydroxyvitaminD3] | - | 

Source: patent US5958683A, “Screening method using the RZR receptor family” (priority 1994, dated 1999)
